Assay results reported in patent US12319663B2, “Alkene-containing amide compound and application thereof” (SHENYANG SINOCHEM AGROCHEMICALS R&D CO., LTD., priority 2019, dated 2025).

Experiments:
Format in all cases: in vivo
[1] = test system: zinnia; test: Herbicidal activity, post-emergence stem and leaf spray, greenhouse: zinnia control; conditions: visual, 0 = no control effect, 100% = complete killing
Procedure: (§1) Seeds of broadleaf weeds (zinnia and piemarker) or grassy weeds (green bristlegrass and barnyard grass) are respectively sown in a paper cup having a diameter of 7 cm and containing nutrient soil; after sowing, the seeds are covered with 1 cm of soil; the soil is pressed and watered, and then the seeds are cultivated in a greenhouse according to a conventional method; and stems and leaves are sprayed after 2-3 leaf stage of the weeds.
(§2) After the original medicinal acetone was dissolved, the test requires to use 1% of Tween 80 to stand in running water to prepare the solution to be tested with a required concentration. According to the design dose of the test, spray treatment was carried out on a track-type crop sprayer (designed and produced by British Engineer Research Ltd.) (spray pressure is 1.95 kg/cm^2, spray volume is 50 L/hm^2 and track speed is 1.48 km/h). The test was repeated for three times. The test material was treated and then placed in an operation hall. The medicinal liquid was naturally dried in the shade, and then was placed in a greenhouse and managed according to the conventional method, The response of the weeds to the drug was observed and recorded, After treatment, the control effects of the test drug on the weeds were visually inspected regularly, expressed by 0-100%. “0” represents no control effect and “100%” represents complete killing.
According to the above test method, part of the compounds of the formula I and KC are selected for activity test of controlling the zinnia.

[2] = test system: piemarker; test: Herbicidal activity, post-emergence stem and leaf spray, greenhouse: piemarker control
Procedure: as §1, §2
According to the above test method, part of the compounds of the formula I and KC are selected for activity test of controlling the piemarker. […]

[3] = test system: barnyard grass; test: Herbicidal activity, post-emergence stem and leaf spray, greenhouse: barnyard grass control
Procedure: as §1, §2
According to the above test method, part of the compounds of the formula I and KC are selected for the activity test of controlling the barnyard grass.

[4] = test system: green bristlegrass; test: Herbicidal activity, post-emergence stem and leaf spray, greenhouse: green bristlegrass control
Procedure: as §1, §2
According to the above test method, part of the compounds of the formula I and KC are selected for the activity test of controlling the green bristlegrass.

[5] = dose 37.5 g a.i./hm2, post-emergence stem and leaf spray
[6] = dose 150 g a.i./hm2, post-emergence stem and leaf spray
[7] = dose 600 g a.i./hm2, post-emergence stem and leaf spray

Compound | Zinnia control activity (after emergence, control effect %) ([1]; dose 37.5 g a.i./hm^2) | Zinnia control activity (after emergence, control effect %) ([1]; dose 150 g a.i./hm^2) | Zinnia control activity (after emergence, control effect %) ([1]; dose 600 g a.i./hm^2) | Piemarker control activity (after emergence, control effect %) [2, 5] | Piemarker control activity (after emergence, control effect %) [2, 6] | Piemarker control activity (after emergence, control effect %) [2, 7] | Barnyard grass control activity (after emergence, control effect %) [3, 5] | Barnyard grass control activity (after emergence, control effect %) [3, 6] | Barnyard grass control activity (after emergence, control effect %) [3, 7] | Green bristlegrass control activity (after emergence, control effect %) [4, 5] | Green bristlegrass control activity (after emergence, control effect %) [4, 6] | Green bristlegrass control activity (after emergence, control effect %) [4, 7]
Cn1nnnc1N(C(=O)/C=C/c1ccccc1)C(=O)c1ccc(C(F)(F)F)cc1S(C)(=O)=O [Compound 1-1] | 100% | 100% | 100% | 100% | 100% | 100% | – | – | – | – | – | –
Cn1nnnc1N(C(=O)/C=C/c1ccc2c(c1)OCO2)C(=O)c1ccc(C(F)(F)F)cc1S(C)(=O)=O [Compound 1-8] | 90% | 95% | 100% | 100% | 100% | 100% | – | – | – | – | – | –
Cc1c(S(C)(=O)=O)ccc(C(=O)N(C(=O)/C=C/c2ccccc2)c2nnnn2C)c1Cl [Compound 1-19] | 95% | 95% | 100% | 90% | 90% | 98% | – | – | – | – | – | –
COCc1c(S(C)(=O)=O)ccc(C(=O)N(C(=O)/C=C/c2ccccc2)c2nnnn2C)c1Cl [Compound 1-24] | 100% | 100% | 100% | 100% | 100% | 100% | 95% | 95% | 100% | – | – | –
COc1c(S(C)(=O)=O)ccc(C(=O)N(C(=O)/C=C/c2ccccc2)c2nnnn2C)c1C [Compound 1-95] | 100% | 100% | 100% | – | – | – | – | – | – | – | – | –
Cc1c(C(=O)N(C(=O)/C=C/c2ccccc2)c2nnnn2C)ccc(S(C)(=O)=O)c1OCC1CCCO1 (stereo not drawn) [Compound 1-100] | – | – | – | – | – | – | 100% | 100% | 100% | – | – | –
CCCOc1c(S(C)(=O)=O)ccc(C(=O)N(C(=O)/C=C/c2ccccc2)c2nnnn2C)c1C [Compound 1-296] | – | – | – | – | – | – | 100% | 100% | 100% | – | – | –
Cc1c(C(=O)N(C(=O)C2=CCCCC2)c2nnnn2C)ccc(S(C)(=O)=O)c1OCC(F)(F)F [Compound 2-13] | 100% | 100% | 100% | – | – | – | 80% | 100% | 100% | – | – | –
Cc1c(C(=O)N(C(=O)C2=CCCC2)c2nnnn2C)ccc(S(C)(=O)=O)c1OCC(F)(F)F [Compound 2-15] | 100% | 100% | 100% | – | – | – | 85% | 100% | 100% | 90% | 100% | 100%
COCCOc1c(S(C)(=O)=O)ccc(C(=O)N(C(=O)C2=CCCCC2)c2nnnn2C)c1C [Compound 2-19] | – | – | – | – | – | – | 90% | 100% | 100% | – | – | –
Cc1c(S(C)(=O)=O)ccc(C(=O)N(C(=O)C2=CCCCC2)c2nnnn2C)c1Cl [Compound 2-97] | 100% | 100% | 100% | 95% | 100% | 100% | 90% | 95% | 100% | 80% | 95% | 100%
COCc1c(S(C)(=O)=O)ccc(C(=O)N(C(=O)C2=CCCCC2)c2nnnn2C)c1Cl [Compound 2-103] | 90% | 95% | 100% | 95% | 100% | 100% | 80% | 90% | 100% | 80% | 90% | 95%
COCc1c(S(C)(=O)=O)ccc(C(=O)N(C(=O)C2=CCCC2)c2nnnn2C)c1Cl [Compound 2-105] | – | – | – | – | – | – | 90% | 90% | 100% | – | – | –
COCc1c(S(C)(=O)=O)ccc(C(=O)N(C(=O)C2CC=CC2)c2nnnn2C)c1Cl [Compound 2-106] | 100% | 100% | 100% | – | – | – | – | – | – | – | – | –
Cn1nnnc1N(C(=O)C1=CCCCC1)C(=O)c1ccc(C(F)(F)F)cc1S(C)(=O)=O [Compound 2-265] | 95% | 100% | 100% | 90% | 95% | 95% | 95% | 95% | 95% | 80% | 90% | 95%
Cn1nnnc1N(C(=O)C1=CCCC1)C(=O)c1ccc(C(F)(F)F)cc1S(C)(=O)=O [Compound 2-266] | 95% | 98% | 100% | 90% | 95% | 100% | 85% | 90% | 95% | 90% | 95% | 100%
Cn1nnnc1N(C(=O)C1=CCCCC1)C(=O)c1ccc(S(C)(=O)=O)cc1Cl [Compound 2-269] | – | – | – | 90% | 95% | 100% | 80% | 90% | 95% | – | – | –
COCCOCc1c(S(C)(=O)=O)ccc(C(=O)N(C(=O)C2=CCCCC2)c2nnnn2C)c1Cl [Compound 2-270] | – | – | – | 90% | 98% | 100% | 90% | 95% | 100% | 90% | 95% | 98%
